Patent publication EP0022117A2, “Metoclopramid resinate and medicament containing it” (Trenker, Ady, priority 1979, dated 1981)

Columns and labels:
[1] = plasma half-life in the dog; format: in vivo; details: chez le chien, read-out: demi-vie plasmatique
[2] = plasma half-life in the rat; format: in vivo; details: chez le rat, read-out: demi-vie plasmatique

half-life [1]: 1 to 1.5 h | half-life [2]: 1 to 1.5 h
SMILES: CCN(CC)CCNC(=O)c1cc(Cl)c(N)cc1OC [Metoclopramide]
